As a reminder, the pEC50 is the negative decadic logarithm of the EC50, by convention in mol/L.

The assay deals with CFTR (Homo sapiens, UniProt P13569). The assay is described as follows: Membrane Potential Dye, Enteroid Assay B. The class given is cell-based. In outline: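 Activity given as % of a triple-combination reference (1 μM and 3 μM correctors, 300 nM acute potentiator). Enteroids were preincubated 18-24 h with compound; chloride efflux then measured 15 min by methyl oxonol fluorescence after forskolin/IBMX/Compound III stimulation in chloride-free buffer containing CaCCinh-A01 and Chicago Sky Blue.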

Setting [1] is: Table 10, read-out: Ent. B EC50.

Structures are written as SMILES. pEC50: −log10 of the molar value. Read-outs that look alike come from different tables or passages of the source. A value given as a limit tells only on which side of the number the result lay.

Sequence of CFTR (P13569 with tags, fused parts or gaps DEL508-508): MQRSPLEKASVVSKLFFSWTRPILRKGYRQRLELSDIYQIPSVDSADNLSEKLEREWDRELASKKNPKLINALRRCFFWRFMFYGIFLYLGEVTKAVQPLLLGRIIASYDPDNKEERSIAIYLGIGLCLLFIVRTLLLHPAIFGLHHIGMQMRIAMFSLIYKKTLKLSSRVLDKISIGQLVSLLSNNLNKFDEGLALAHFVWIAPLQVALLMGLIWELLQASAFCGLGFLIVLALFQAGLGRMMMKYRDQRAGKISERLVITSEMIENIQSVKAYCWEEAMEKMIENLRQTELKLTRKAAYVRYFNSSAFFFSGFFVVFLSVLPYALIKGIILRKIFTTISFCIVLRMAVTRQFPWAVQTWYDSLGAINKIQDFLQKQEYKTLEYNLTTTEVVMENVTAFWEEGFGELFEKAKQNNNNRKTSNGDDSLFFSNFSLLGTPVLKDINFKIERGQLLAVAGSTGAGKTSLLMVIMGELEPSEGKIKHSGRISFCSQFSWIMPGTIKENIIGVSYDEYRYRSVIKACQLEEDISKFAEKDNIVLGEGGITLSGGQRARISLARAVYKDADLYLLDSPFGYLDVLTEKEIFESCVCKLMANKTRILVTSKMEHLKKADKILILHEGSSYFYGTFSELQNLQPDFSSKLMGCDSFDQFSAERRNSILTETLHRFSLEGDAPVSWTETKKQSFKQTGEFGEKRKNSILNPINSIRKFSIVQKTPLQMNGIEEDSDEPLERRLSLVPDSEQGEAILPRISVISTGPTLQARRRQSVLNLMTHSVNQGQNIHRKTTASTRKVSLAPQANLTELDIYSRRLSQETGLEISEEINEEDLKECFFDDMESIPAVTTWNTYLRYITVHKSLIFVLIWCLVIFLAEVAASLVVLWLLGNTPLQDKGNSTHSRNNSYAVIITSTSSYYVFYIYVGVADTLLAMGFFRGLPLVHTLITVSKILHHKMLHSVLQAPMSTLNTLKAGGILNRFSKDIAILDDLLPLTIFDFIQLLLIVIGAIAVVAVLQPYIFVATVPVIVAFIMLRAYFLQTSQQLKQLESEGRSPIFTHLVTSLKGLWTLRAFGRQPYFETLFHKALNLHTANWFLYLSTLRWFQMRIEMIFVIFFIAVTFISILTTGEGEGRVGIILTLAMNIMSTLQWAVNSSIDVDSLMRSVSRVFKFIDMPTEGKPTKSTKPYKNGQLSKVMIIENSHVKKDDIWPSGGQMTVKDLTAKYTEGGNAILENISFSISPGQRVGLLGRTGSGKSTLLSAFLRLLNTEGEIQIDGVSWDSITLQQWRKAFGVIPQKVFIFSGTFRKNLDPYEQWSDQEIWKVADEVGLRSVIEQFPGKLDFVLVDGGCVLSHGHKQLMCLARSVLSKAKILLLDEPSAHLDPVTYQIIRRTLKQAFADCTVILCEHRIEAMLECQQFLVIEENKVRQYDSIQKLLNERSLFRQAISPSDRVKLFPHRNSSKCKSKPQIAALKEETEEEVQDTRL

`[H][C@]1(N2C(=O)c3cccc(c3)S(=O)(=O)Nc3nc(cc(-c4c(C)cccc4C)n3)OC[C@H]2CCC(C)C)C[C@@]2(C[C@H](C(C)(C)O)C2)C1` (single isomer, unassigned) [Compound 4]: the “Ent. B Max Activity (%)” value (Table 10) is “+++ (+++ is >60%)”. Further, the pEC50 under setting [1] is more than 6.00. As to `COCCN(C)[C@H]1C[C@@]2(C1)C[C@H](N1C(=O)c3cccc(c3)S(=O)(=O)Nc3nc(cc(-c4c(C)cccc4C)n3)OC[C@H]1CC1(C(F)(F)F)CC1)C2` (stereo partly drawn) [Compound 83, (R)-16-(2,6-Dimethylphenyl)-6-((2R,4r,6R)-6-((2-methoxyethyl)(methyl)amino)spiro[3.3]heptan-2-yl)-7-((1-(trifluoromethyl)cyclopropyl)methyl)-9-oxa-3-thia-2,6-diaza-1(2,4)-pyrimidina-4(1,3)-benzenacyclononaphan-5-one 3,3-dioxide], where the note is “Table 9”, the “Ent. B Max Activity (%)” value is on record as “+++ (+++ is >60%)”. Also, under “Table 9, read-out: Ent. B EC50”, the pEC50 is more than 6.00. Regarding `COC1(C)CCN(C(=O)C2CC(N3C(=O)c4cccc(c4)S(=O)(=O)Nc4nc(cc(-c5c(C)cccc5C)n4)OC[C@H]3CC(C)C)C2)CC1` (stereo partly shown) [Compound 309], the “Ent. B Max Activity (%)” value was “+++ (+++ is >60%)”. Besides, under “read-out: Ent. B EC50”, the pEC50 was more than 6.00. As to `CCC(=O)NC1CC2(C1)CC(N1C(=O)c3cccc(c3)S(=O)(=O)Nc3nc(cc(-c4c(C)cccc4C)n3)OC[C@H]1CC(C)(C)C)C2` (stereo partly shown) [Compound 353], for the setting “Table 10”, the “Ent. B Max Activity (%)” value is listed as “+++ (+++ is >60%)”. Moreover, under setting [1], the pEC50 is more than 6.00.

On to `CC(=O)NCC[C@H]1C[C@@H](N2C(=O)c3cccc(c3)S(=O)(=O)Nc3nc(cc(-c4c(C)cccc4C)n3)OC[C@H]2CC(C)(C)C)C1` (single isomer, unassigned) [Compound 154], for which the “Ent. B Max Activity (%)” value (Table 10) is “+++ (+++ is >60%)”. In addition, the pEC50 under setting [1] was more than 6.00. The corresponding values for `Cc1cccc(C)c1-c1cc2nc(n1)NS(=O)(=O)c1cccc(c1)C(=O)N([C@H]1C[C@]3(C[C@H](NC(=O)C(C)C)C3)C1)[C@H](CC1(C(F)(F)F)CC1)CO2` (stereo partly shown) [Compound 246] are “+++ (+++ is >60%)” and more than 6.00. As to `CO[C@H]1C[C@H]2CC(N3C(=O)c4cccc(c4)S(=O)(=O)Nc4nc(cc(-c5c(C)cccc5C)n4)OC[C@H]3CC(C)C)C[C@H]2C1` (stereo partly drawn) [Compound 37, (11R)-12-[(3aR,6aS)-5-Methoxy-1,2,3,3a,4,5,6,6a-octahydropentalen-2-yl]-6-(2,6-dimethylphenyl)-11-isobutyl-2,2-dioxo-9-oxa-2λ^6-thia-3,5,12,19-tetrazatricyclo[12.3.1.14,8]nonadeca-1(18),4(19),5,7,14,16-hexaen-13-one], the “Ent. B Max Activity (%)” value (Table 9) is listed as “+++ (+++ is >60%)”. For the same molecule, the negative-log EC50 (pEC50) (Table 9, read-out: Ent. B EC50) was more than 6.00. `Cc1cccc(C)c1-c1cc2nc(n1)NS(=O)(=O)c1cccc(c1)C(=O)N(C1CC3(CCN(C(=O)C(C)C)CC3)C1)[C@H](CC(C)(C)C(F)(F)F)CO2` [Compound 416]: the “Ent. B Max Activity (%)” value (Table 10) is “+++ (+++ is >60%)”. The pEC50 under setting [1] was more than 6.00. `Cc1cccc(C)c1-c1cc2nc(n1)NS(=O)(=O)c1cccc(c1)C(=O)N(C1CC3(CC(O)C3)C1)[C@H](CC(C)(C)C)CO2` (single isomer, unassigned) [Compound 121]: the “Ent. B Max Activity (%)” value (Table 10) is “+++ (+++ is >60%)”. Also, the negative logarithm of the EC50 (pEC50) under setting [1] was more than 6.00.

`Cc1cccc(C)c1-c1cc2nc(n1)NS(=O)(=O)c1cccc(c1)C(=O)N(C1CC(NC(=O)OC(C)C)C1)[C@H](CC(C)(C)C(F)(F)F)CO2` (single isomer, unassigned) [Compound 192]: the “Ent. B Max Activity (%)” value (Table 10) is “+++ (+++ is >60%)”. Further, the pEC50 under setting [1] was more than 6.00. The corresponding values for `Cc1cccc(C)c1-c1cc2nc(n1)NS(=O)(=O)c1cccc(c1)C(=O)N([C@H]1C[C@@]3(C[C@H](NC(=O)C(C)C)C3)C1)[C@H](CC1(C(F)(F)F)CC1)CO2` (stereo partly shown) [Compound 247] are “+++ (+++ is >60%)” and more than 6.00.

For `Cc1cccc(C)c1-c1cc2nc(n1)NS(=O)(=O)c1cccc(c1)C(=O)N(C1CC3(CC(N)C3)C1)[C@H](CC(C)C)CO2` (stereo in doubt) [Compound 292], the “Ent. B Max Activity (%)” value (Table 9) is “+++ (+++ is >60%)”. Further, the pEC50 (Table 9, read-out: Ent. B EC50) is more than 6.00.

Consider `Cc1cccc(C)c1-c1cc2cc(n1)NS(=O)(=O)c1cccc(n1)C(=O)N(C1CC3(CC3)C1)[C@H](CC1(C(F)(F)F)CC1)CO2` [Compound 425], for which, for the setting “Table 9”, the “Ent. B Max Activity (%)” value was “+++ (+++ is >60%)”. Also, the negative-log EC50 (pEC50) (Table 9, read-out: Ent. B EC50) was more than 6.00. `Cc1cccc(C)c1-c1cc2nc(n1)NS(=O)(=O)c1cccc(c1)C(=O)N(C1CC3(CCN(CCOC(F)(F)F)CC3)C1)[C@H](CC(C)C)CO2` [Compound 299]: the “Ent. B Max Activity (%)” value is recorded as “+++ (+++ is >60%)”. Besides, the pEC50 (read-out: Ent. B EC50) was more than 6.00. Take `Cc1cccc(C)c1-c1cc2nc(n1)NS(=O)(=O)c1cccc(c1)C(=O)N(C1CC3(CCN3C(=O)CO)C1)[C@H](CC(C)(C)C)CO2` (stereo partly drawn) [Compound 146, (11R)-6-(2,6-Dimethylphenyl)-11-(2,2-dimethylpropyl)-12-[1-(2-hydroxyacetyl)-1-azaspiro[3.3]heptan-6-yl]-2,2-dioxo-9-oxa-2λ^6-thia-3,5,12,19-tetrazatricyclo[12.3.1.14,8]nonadeca-1(18),4(19),5,7,14,16-hexaen-13-one]: the “Ent. B Max Activity (%)” value (Table 10) is “+++ (+++ is >60%)”. Also, the negative-log EC50 (pEC50) under setting [1] was more than 6.00. The corresponding values for `Cc1cccc(C)c1-c1cc2nc(n1)NS(=O)(=O)c1cccc(c1)C(=O)N([C@H]1C[C@H](OC(=O)NCC3CCCCC3)C1)[C@H](CC(C)C)CO2` (stereo in doubt) [Compound 363] are “++ (++ is 30-60%)” and more than 6.00. In the case of `Cc1cccc(C)c1-c1cc2nc(n1)NS(=O)(=O)c1cccc(c1)C(=O)N(C1CC3(CC(N(C)C)C3)C1)[C@H](CC(C)(C)C)CO2` (stereo partly shown) [Compound 462], the “Ent. B Max Activity (%)” value (Table 9) is on record as “+++ (+++ is >60%)”. In addition, under “Table 9, read-out: Ent. B EC50”, the pEC50 is more than 6.00. For the molecule `COC(=O)NC1CC(N2C(=O)c3cccc(c3)S(=O)(=O)Nc3nc(cc(-c4c(C)cccc4C)n3)OC[C@H]2CC2(C(F)(F)F)CC2)C1` (single isomer, unassigned) [Compound 58], under “Table 9”, the “Ent. B Max Activity (%)” value is reported as “+++ (+++ is >60%)”. Moreover, the negative-log EC50 (pEC50) (Table 9, read-out: Ent. B EC50) is more than 6.00. With `[H][C@]1(N2C(=O)c3cccc(c3)S(=O)(=O)Nc3nc(cc(-c4c(C)cccc4C)n3)OC[C@H]2CC2(C(F)(F)F)CC2)C[C@]2(C[C@@H](CO)C2)C1` (single isomer, unassigned) [Compound 135], the “Ent. B Max Activity (%)” value is reported as “+++ (+++ is >60%)”. Also, the pEC50 (read-out: Ent. B EC50) is more than 6.00. Turning to `[H][C@]1(N2C(=O)c3cccc(c3)S(=O)(=O)Nc3nc(cc(-c4c(C)cccc4C)n3)OC[C@H]2CC(C)C)C[C@@]2(C[C@H](NC(=O)CC)C2)C1` (stereo partly shown) [Compound 250], under setting [1], the negative-log EC50 (pEC50) is more than 6.00.

Take `Cc1cccc(C)c1-c1cc2nc(n1)NS(=O)(=O)c1cccc(c1)C(=O)N(C1CC3(CCNC(=O)C3)C1)[C@H](CC(C)C)CO2` (stereo partly shown) [Compound 201]: for the setting “Table 10”, the “Ent. B Max Activity (%)” value is listed as “++ (++ is 30-60%)”. Under setting [1], the pEC50 was more than 6.00. Turning to `Cc1cccc(C)c1-c1cc2nc(n1)NS(=O)(=O)c1cccc(c1)C(=O)N(C1CC3(CCN(C(=O)COC(C)(C)C)CC3)C1)[C@H](CC(C)C)CO2` [Compound 460], the “Ent. B Max Activity (%)” value (Table 9) is “+++ (+++ is >60%)”. For the same molecule, the negative-log EC50 (pEC50) (Table 9, read-out: Ent. B EC50) was more than 6.00.

The record behind these values is patent US20230382925A1, “MODULATORS OF CYSTIC FIBROSIS TRANSMEMBRANE CONDUCTANCE REGULATOR” (VERTEX PHARMACEUTICALS INCORPORATED, priority 2020, published 2023).
